Measured values: US12077503B2, “Substituted cyclic amides and their use as herbicides” (FMC CORPORATION, priority 2015, dated 2024)

Key:
Assay type in all cases: in vivo
[1] = system: Galium (catchweed bedstraw, Galium aparine); assay: Test A postemergence; conditions: Galium, post-emergence, 240 h, postemergence, approx. 10 d
Method in brief: (§1)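 In a loam soil and sand blend, planted seeds got a preemergence directed soil spray, and young plants at the one- to two-leaf stage, 2–10 cm high, got a postemergence application; ~10 d greenhouse hold; injury rated visually, 0 = none, 100 = complete control.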

[2] = system: ryegrass, Italian (Italian ryegrass, Lolium multiflorum); assay: Test A postemergence; conditions: Lolium multiflorum, post-emergence, 240 h, postemergence, approx. 10 d
Method in brief: as §1

[3] = system: giant foxtail (Setaria faberii); assay: Test A postemergence; conditions: Setaria faberi, post-emergence, 240 h, postemergence, approx. 10 d
Method in brief: as §1

[4] = system: barnyardgrass (Echinochloa crus-galli); assay: Test A postemergence; conditions: Echinochloa crus-galli, post-emergence, 240 h, read-out: Plant response rating, Barnyardgrass
Method in brief: as §1

[5] = system: wheat (Triticum aestivum); assay: Test A postemergence; conditions: Triticum aestivum, post-emergence, 240 h, postemergence, approx. 10 d
Method in brief: as §1

[6] = system: blackgrass (Alopecurus myosuroides); assay: Test A postemergence; conditions: Alopecurus myosuroides, post-emergence, 240 h, read-out: Plant response rating, Blackgrass
Method in brief: as §1

[7] = system: ragweed (common ragweed, Ambrosia elatior); assay: Test A postemergence; conditions: Ambrosia artemisiifolia, post-emergence, 240 h, postemergence, approx. 10 d
Method in brief: as §1

corn (Zea mays) = assay: Test A postemergence; conditions: Zea mays, post-emergence, 240 h
Method in brief: as §1

[8] = system: pigweed (Amaranthus retroflexus); assay: Test A postemergence; conditions: Amaranthus retroflexus, post-emergence, 240 h, postemergence, approx. 10 d
Method in brief: as §1

[9] = system: ryegrass, Italian (Italian ryegrass, Lolium multiflorum); assay: Test A preemergence; conditions: Lolium multiflorum, pre-emergence, 240 h
Method in brief: as §1

Kochia (Kochia scoparia) = assay: Test A preemergence; conditions: Bassia scoparia, pre-emergence, 240 h
Method in brief: as §1

[10] = system: giant foxtail (Setaria faberii); assay: Test A preemergence; conditions: Setaria faberi, pre-emergence, 240 h
Method in brief: as §1

[11] = system: barnyardgrass (Echinochloa crus-galli); assay: Test A preemergence; conditions: Echinochloa crus-galli, pre-emergence, 240 h
Method in brief: as §1

[12] = system: ragweed (common ragweed, Ambrosia elatior); assay: Test A preemergence; conditions: Ambrosia artemisiifolia, pre-emergence, 240 h
Method in brief: as §1

[13] = system: pigweed (Amaranthus retroflexus); assay: Test A preemergence; conditions: Amaranthus retroflexus, pre-emergence, 240 h
[14] = 125 g ai/ha, Postemergence, visual injury after approximately 10 d, 0 to 100 scale where 0 is no effect and 100 is complete control
[15] = 500 g ai/ha, postemergence, visual injury, 0 to 100 scale (0 no effect, 100 complete control), approx. 10 d

CSc1ccccc1NC(=O)[C@H]1C(=O)NC[C@@H]1c1ccc(C)c(C)c1 [Compound 1036]
pest or weed control at 125 g/ha ([1]; 125 g ai/ha, visual injury on 0 to 100 scale (0 no effect, 100 complete control), read-out: Galium plant response rating): 20% | pest or weed control at 500 g/ha ([1]; 500 g ai/ha, visual injury, 0 to 100 scale (0 no effect, 100 complete control), read-out: Plant response rating, Galium): 30% | pest or weed control at 125 g/ha ([2]; 125 g ai/ha, visual injury on 0 to 100 scale (0 no effect, 100 complete control), read-out: Ryegrass, Italian plant response rating): 0% | pest or weed control at 500 g/ha ([2]; 500 g ai/ha, visual injury, 0 to 100 scale (0 no effect, 100 complete control), read-out: Plant response rating, Ryegrass, Italian): 60% | pest or weed control at 125 g/ha ([3]; 125 g ai/ha, visual injury on 0 to 100 scale (0 no effect, 100 complete control), read-out: Foxtail, Giant plant response rating): 0% | pest or weed control at 500 g/ha ([3]; 500 g ai/ha, visual injury, 0 to 100 scale (0 no effect, 100 complete control), read-out: Plant response rating, Foxtail, Giant): 60% | pest or weed control at 125 g/ha [4, 14]: 70% | pest or weed control at 500 g/ha [4, 15]: 90% | plant injury at 125 g/ha ([5]; 125 g ai/ha, visual injury on 0 to 100 scale (0 no effect, 100 complete control), read-out: Wheat plant response rating): 0% | plant injury at 500 g/ha ([5]; 500 g ai/ha, visual injury, 0 to 100 scale (0 no effect, 100 complete control), read-out: Plant response rating, Wheat): 20% | pest or weed control at 125 g/ha [6, 14]: 0% | pest or weed control at 500 g/ha [6, 15]: 0% | pest or weed control at 125 g/ha ([7]; 125 g ai/ha, visual injury on 0 to 100 scale (0 no effect, 100 complete control), read-out: Ragweed plant response rating): 0% | pest or weed control at 500 g/ha ([7]; 500 g ai/ha, visual injury, 0 to 100 scale (0 no effect, 100 complete control), read-out: Plant response rating, Ragweed): 10% | Corn plant response rating (crop injury, 0 = no effect, 100 = complete kill) at 125 g/ha (corn (Zea mays); [14]): 0% | Corn plant response rating (crop injury, 0 = no effect, 100 = complete kill) at 500 g/ha (corn (Zea mays); [15]): 20% | pest or weed control at 125 g/ha ([8]; 125 g ai/ha, visual injury on 0 to 100 scale (0 no effect, 100 complete control), read-out: Pigweed plant response rating): 0% | pest or weed control at 500 g/ha ([8]; 500 g ai/ha, visual injury, 0 to 100 scale (0 no effect, 100 complete control), read-out: Plant response rating, Pigweed): 0% | pest or weed control at 125 g/ha ([9]; 125 g ai/ha, Preemergence, visual injury rating after approximately 10 d, read-out: Ryegrass, Italian plant response rating (0 to 100 scale, 0 is no effect, 100 is complete control)): 20% | pest or weed control at 500 g/ha ([9]; 500 g ai/ha, preemergence, visual injury rating about 10 d after treatment, 0 to 100 scale (0 no effect, 100 complete control), read-out: Ryegrass, Italian plant response rating): 20% | pest or weed control at 125 g/ha (Kochia (Kochia scoparia); 125 g ai/ha, Preemergence, visual injury rating after approximately 10 d, read-out: Kochia plant response rating (0 to 100 scale, 0 is no effect, 100 is complete control)): 70% | pest or weed control at 500 g/ha (Kochia (Kochia scoparia); 500 g ai/ha, preemergence, visual injury rating about 10 d after treatment, 0 to 100 scale (0 no effect, 100 complete control), read-out: Kochia plant response rating): 90% | pest or weed control at 125 g/ha ([10]; 125 g ai/ha, Preemergence, visual injury rating after approximately 10 d, read-out: Foxtail, Giant plant response rating (0 to 100 scale, 0 is no effect, 100 is complete control)): 70% | pest or weed control at 500 g/ha ([10]; 500 g ai/ha, preemergence, visual injury rating about 10 d after treatment, 0 to 100 scale (0 no effect, 100 complete control), read-out: Foxtail, Giant plant response rating): 90% | pest or weed control at 125 g/ha ([11]; 125 g ai/ha, Preemergence, visual injury rating after approximately 10 d, read-out: Barnyardgrass plant response rating (0 to 100 scale, 0 is no effect, 100 is complete control)): 90% | pest or weed control at 500 g/ha ([11]; 500 g ai/ha, preemergence, visual injury rating about 10 d after treatment, 0 to 100 scale (0 no effect, 100 complete control), read-out: Barnyardgrass plant response rating): 90% | pest or weed control at 125 g/ha ([12]; 125 g ai/ha, Preemergence, visual injury rating after approximately 10 d, read-out: Ragweed plant response rating (0 to 100 scale, 0 is no effect, 100 is complete control)): 0% | pest or weed control at 500 g/ha ([12]; 500 g ai/ha, preemergence, visual injury rating about 10 d after treatment, 0 to 100 scale (0 no effect, 100 complete control), read-out: Ragweed plant response rating): 50% | pest or weed control at 125 g/ha ([13]; 125 g ai/ha, Preemergence, visual injury rating after approximately 10 d, read-out: Pigweed plant response rating (0 to 100 scale, 0 is no effect, 100 is complete control)): 0% | pest or weed control at 500 g/ha ([13]; 500 g ai/ha, preemergence, visual injury rating about 10 d after treatment, 0 to 100 scale (0 no effect, 100 complete control), read-out: Pigweed plant response rating): 0%
